Laboratory results as given in the NIST ThermoML archive (doi:10.1016/j.jct.2018.07.013).

Columns and labels:
[1] = xn = mol fraction of the nth substance listed; details: 298.15 K, 100 kPa, Liquid; for speed of sound: Frequency=3 MHz, Single path-length method; for mass density: Vibrating tube method
[2] = excess molar enthalpy (molar enthalpy of mixing); xn = mol fraction of the nth substance listed; details: 298.15 K, 100 kPa, Liquid, Power-compensation calorimetry
[3] = 298.15 K, 100 kPa, Liquid; for speed of sound: Frequency=3 MHz, Single path-length method; for mass density: Vibrating tube method

CCOC(=O)C(C)O (stereo not drawn) [DL-ethyl lactate] + CCCCO
Details	excess molar enthalpy, [2] [kcal/mol]	mass density, [1] [kg/m3]	speed of sound, [1] [m/s]
x1 = 0.048	0.0471	–	–
x1 = 0.0502	–	819.65	1241.3
x1 = 0.0914	–	830.65	1242.1
x1 = 0.103	0.0841	–	–
x1 = 0.1929	–	856.89	1244.7
x1 = 0.233	0.136	–	–
x1 = 0.3041	–	884.31	1248.3
x1 = 0.314	0.149	–	–
x1 = 0.4061	–	908.31	1252.3
x1 = 0.414	0.154	–	–
x1 = 0.4991	–	929.27	1256
x1 = 0.527	0.146	–	–
x1 = 0.6037	–	951.84	1260.8
x1 = 0.626	0.127	–	–
x1 = 0.707	–	973.11	1265.9
x1 = 0.714	0.0992	–	–
x1 = 0.7968	–	990.82	1270.1
x1 = 0.82	0.0588	–	–
x1 = 0.8927	–	1008.98	1274.6
x1 = 0.91	0.0299	–	–
x1 = 0.951	0.0129	–	–
x1 = 0.9527	–	1019.97	1277.3
x1 = 1	–	1028.45	1279.3

CCOC(=O)C(C)O (stereo not drawn) [DL-ethyl lactate] + CCCO
Details	excess molar enthalpy, [2] [kcal/mol]	mass density, [1] [kg/m3]	speed of sound, [1] [m/s]
x1 = 0.025	0.0229	–	–
x1 = 0.0489	–	816.57	1211.1
x1 = 0.054	0.0473	–	–
x1 = 0.1025	–	834.15	1216.4
x1 = 0.117	0.0815	–	–
x1 = 0.2027	–	864.58	1225.8
x1 = 0.216	0.109	–	–
x1 = 0.3036	–	892.35	1235.2
x1 = 0.309	0.12	–	–
x1 = 0.3973	–	915.89	1242.5
x1 = 0.404	0.121	–	–
x1 = 0.4963	–	938.64	1250.2
x1 = 0.517	0.115	–	–
x1 = 0.6012	–	960.68	1257.8
x1 = 0.612	0.101	–	–
x1 = 0.6951	–	978.76	1263.9
x1 = 0.712	0.0765	–	–
x1 = 0.8061	–	998.37	1270.4
x1 = 0.814	0.0459	–	–
x1 = 0.905	0.021	–	–
x1 = 0.9076	–	1014.74	1275.6
x1 = 0.9482	–	1020.9	1277.3
x1 = 1	–	1028.45	1279.3

CO [methanol]
[3]
Details	mass density [kg/m3]	speed of sound [m/s]
–	786.53	1104

CCCO [propan-1-ol] + COC(=O)C(C)O
[1], x2 = 0
Details	mass density [kg/m3]	speed of sound [m/s]
–	799.66	1206

COC(=O)C(C)O (centres undefined) [methyl 2-hydroxypropanoate] + CCO
Details	excess molar enthalpy, [2] [kcal/mol]	mass density, [1] [kg/m3]	speed of sound, [1] [m/s]
x1 = 0.0492	–	809.35	1158
x1 = 0.056	0.0277	–	–
x1 = 0.0968	–	831.45	1172.3
x1 = 0.104	0.0497	–	–
x1 = 0.185	0.0801	–	–
x1 = 0.2099	–	879.28	1203.7
x1 = 0.225	0.0932	–	–
x1 = 0.281	0.105	–	–
x1 = 0.3161	–	918.72	1229.4
x1 = 0.3921	–	944.17	1245.2
x1 = 0.464	0.11	–	–
x1 = 0.4987	–	976.29	1266.1
x1 = 0.543	0.102	–	–
x1 = 0.5872	–	1000.2	1283.3
x1 = 0.666	0.0825	–	–
x1 = 0.6963	–	1026.72	1300.8
x1 = 0.794	0.0569	–	–
x1 = 0.8007	–	1049.53	1316.4
x1 = 0.8814	–	1065.65	1326.5
x1 = 0.903	0.0282	–	–
x1 = 0.952	0.0151	–	–
x1 = 0.9535	–	1079.11	1334.4
x1 = 1	–	1087.35	1339.3

CCOC(=O)C(C)O (stereo not drawn) [DL-ethyl lactate] + CCO
Details	excess molar enthalpy, [2] [kcal/mol]	mass density, [1] [kg/m3]	speed of sound, [1] [m/s]
x1 = 0.0522	–	809.88	1158.1
x1 = 0.054	0.0177	–	–
x1 = 0.0957	–	828.74	1169.7
x1 = 0.114	0.0337	–	–
x1 = 0.1946	–	866.53	1192.8
x1 = 0.225	0.0502	–	–
x1 = 0.2902	–	897.43	1211.3
x1 = 0.312	0.0554	–	–
x1 = 0.4011	–	927.58	1229.3
x1 = 0.42	0.0574	–	–
x1 = 0.4995	–	950.3	1240.8
x1 = 0.511	0.0538	–	–
x1 = 0.6076	–	971.75	1252.8
x1 = 0.635	0.0457	–	–
x1 = 0.6931	–	986.54	1261.4
x1 = 0.737	0.0349	–	–
x1 = 0.7965	–	1002.43	1268.7
x1 = 0.829	0.0217	–	–
x1 = 0.9047	–	1017.03	1275.2
x1 = 0.93	0.0097	–	–
x1 = 0.9511	–	1022.75	1277.3
x1 = 0.96	0.00478	–	–
x1 = 1	–	1028.45	1279.3

CCCO [propan-1-ol]
[3]
Details	mass density [kg/m3]	speed of sound [m/s]
–	799.66	1206

COC(=O)C(C)O (centres undefined) [methyl 2-hydroxypropanoate] + CCCO
Details	excess molar enthalpy, [2] [kcal/mol]	mass density, [1] [kg/m3]	speed of sound, [1] [m/s]
x1 = 0.045	–	815.93	1211.5
x1 = 0.05	0.0457	–	–
x1 = 0.1025	–	836.2	1218.9
x1 = 0.104	0.0832	–	–
x1 = 0.2047	–	870.81	1232.5
x1 = 0.207	0.134	–	–
x1 = 0.3	–	901.52	1245.4
x1 = 0.309	0.162	–	–
x1 = 0.4004	–	932.31	1259.8
x1 = 0.411	0.172	–	–
x1 = 0.501	0.17	–	–
x1 = 0.5012	–	961.71	1274.1
x1 = 0.5911	–	986.71	1286.9
x1 = 0.607	0.157	–	–
x1 = 0.6935	–	1013.88	1300.8
x1 = 0.707	0.133	–	–
x1 = 0.7978	–	1040.2	1315.1
x1 = 0.802	0.101	–	–
x1 = 0.9	–	1064.67	1327.6
x1 = 0.902	0.0531	–	–
x1 = 0.945	–	1075.04	1333.1
x1 = 0.95	0.0258	–	–
x1 = 1	–	1087.35	1339.3

CCO [ethanol] + COC(=O)C(C)O
[1], x2 = 0
Details	mass density [kg/m3]	speed of sound [m/s]
–	785.16	1143.2

COC(=O)C(C)O (centres undefined) [methyl 2-hydroxypropanoate] + CO
Details	excess molar enthalpy, [2] [kcal/mol]	mass density, [1] [kg/m3]	speed of sound, [1] [m/s]
x1 = 0.0565	–	826.67	1134.5
x1 = 0.0945	–	850.35	1152.9
x1 = 0.104	0.0038	–	–
x1 = 0.151	0.00392	–	–
x1 = 0.1933	–	902.12	1196.4
x1 = 0.262	0.00117	–	–
x1 = 0.287	0.000215	–	–
x1 = 0.3029	–	947.03	1234.1
x1 = 0.316	-0.000956	–	–
x1 = 0.3844	–	974.04	1254.7
x1 = 0.399	-0.00413	–	–
x1 = 0.482	-0.00719	–	–
x1 = 0.5099	–	1008.1	1282.4
x1 = 0.595	-0.00903	–	–
x1 = 0.6105	–	1029.88	1301.4
x1 = 0.687	-0.00937	–	–
x1 = 0.7215	–	1049.84	1318.2
x1 = 0.798	-0.00686	–	–
x1 = 0.8206	–	1064.82	1329.8
x1 = 0.879	-0.0044	–	–
x1 = 0.9225	–	1078.13	1337.1
x1 = 0.945	-0.00194	–	–
x1 = 0.9601	–	1082.7	1338.8
x1 = 1	–	1087.35	1339.3

CCCCO [butan-1-ol] + CCOC(=O)C(C)O
[1], x2 = 0
Details	mass density [kg/m3]	speed of sound [m/s]
–	805.95	1240.4

CCO [ethanol]
[3]
Details	mass density [kg/m3]	speed of sound [m/s]
–	785.16	1143.2

CCCCO [butan-1-ol] + COC(=O)C(C)O
[1], x2 = 0
Details	mass density [kg/m3]	speed of sound [m/s]
–	805.95	1240.4

CCCCO [butan-1-ol]
[3]
Details	mass density [kg/m3]	speed of sound [m/s]
–	805.95	1240.4

CO [methanol] + CCOC(=O)C(C)O
[1], x2 = 0
Details	mass density [kg/m3]	speed of sound [m/s]
–	786.53	1104

CCCO [propan-1-ol] + CCOC(=O)C(C)O
[1], x2 = 0
Details	mass density [kg/m3]	speed of sound [m/s]
–	799.66	1206

CO [methanol] + COC(=O)C(C)O
[1], x2 = 0
Details	mass density [kg/m3]	speed of sound [m/s]
–	786.53	1104

CCO [ethanol] + CCOC(=O)C(C)O
[1], x2 = 0
Details	mass density [kg/m3]	speed of sound [m/s]
–	785.16	1143.2

CCOC(=O)C(C)O (racemic) [DL-ethyl lactate]
[3]
Details	mass density [kg/m3]	speed of sound [m/s]
–	1028.45	1279.3

CCOC(=O)C(C)O (stereo not drawn) [DL-ethyl lactate] + CO
Details	excess molar enthalpy, [2] [kcal/mol]	mass density, [1] [kg/m3]	speed of sound, [1] [m/s]
x1 = 0.0432	–	816.63	1125.5
x1 = 0.051	-0.0088	–	–
x1 = 0.0935	–	846.09	1149.1
x1 = 0.104	-0.0166	–	–
x1 = 0.1911	–	890.78	1187
x1 = 0.209	-0.0299	–	–
x1 = 0.2979	–	926.51	1215.4
x1 = 0.327	-0.0361	–	–
x1 = 0.3976	–	951.94	1234.5
x1 = 0.437	-0.0378	–	–
x1 = 0.5018	–	972.85	1250.5
x1 = 0.569	-0.0356	–	–
x1 = 0.5789	–	985.46	1259
x1 = 0.621	-0.0313	–	–
x1 = 0.695	–	1000.96	1270.3
x1 = 0.763	-0.0199	–	–
x1 = 0.8045	–	1012.66	1275.9
x1 = 0.83	-0.0134	–	–
x1 = 0.9018	–	1021.2	1278.2
x1 = 0.905	-0.00672	–	–
x1 = 0.958	-0.00263	–	–
x1 = 0.9622	–	1025.79	1279
x1 = 1	–	1028.45	1279.3

COC(=O)C(C)O (centres undefined) [methyl 2-hydroxypropanoate] + CCCCO
Details	excess molar enthalpy, [2] [kcal/mol]	mass density, [1] [kg/m3]	speed of sound, [1] [m/s]
x1 = 0.054	0.0531	–	–
x1 = 0.0589	–	822.83	1242.8
x1 = 0.1088	–	837.09	1245.1
x1 = 0.132	0.109	–	–
x1 = 0.174	0.138	–	–
x1 = 0.1905	–	860.37	1249.8
x1 = 0.287	0.186	–	–
x1 = 0.2973	–	890.71	1257.2
x1 = 0.384	0.204	–	–
x1 = 0.3887	–	916.62	1265
x1 = 0.487	0.207	–	–
x1 = 0.4999	–	948.04	1275.8
x1 = 0.552	0.2	–	–
x1 = 0.5977	–	975.58	1286.4
x1 = 0.6976	–	1003.57	1298.3
x1 = 0.705	0.16	–	–
x1 = 0.75	0.136	–	–
x1 = 0.7926	–	1030.02	1310.6
x1 = 0.864	0.0767	–	–
x1 = 0.9107	–	1062.72	1326.6
x1 = 0.934	0.039	–	–
x1 = 0.9577	–	1075.69	1333.2
x1 = 1	–	1087.35	1339.3

COC(=O)C(C)O (centres undefined) [methyl 2-hydroxypropanoate]
[3]
Details	mass density [kg/m3]	speed of sound [m/s]
–	1087.35	1339.3
